These results are taken from patent US20110212890A1, “METASTIN DERIVATIVE AND USE THEREOF” (Takeda Pharmaceutical Company Limited, priority 2008, published 2011).

Ahx = NCCCCCC(=O)O

Assay [1] concerns male Crl: CD (SD) rats. Kind of assay: LH release action in male rat (plasma LH by radioimmunoassay). The assay is classed as in vivo. The procedure:
(§1) For male Crl: CD (SD) rats (8 or 10 weeks old), compounds 1 (10 weeks old), 3, 8, 9, 10 and 11 (8 weeks old) (1, 10 or 100 nmol/kg), and metastin (45-54) (PEPTIDE INSTITUTE, INC., 10 or 100 nmol/kg), which were dissolved in physiological saline, were administered subcutaneously to the dorsum. For the control group, a physiological saline was administered subcutaneously to the dorsum. About 0.4 mL of the blood was collected from the tail vein before the administration (0 hour) and after 0.5, 1, 2, 4 hours of the administration of compounds 1, 3, 8, 9, 10 and 11, and metastin (45-54), or physiological saline. The collected blood was well mixed with 12 μL of 10 w/v % EDTA.2Na-containing trasylol solution (Bayer AG), and then separated by centrifugation at 12,000 rpm for 10 minutes, and the supernatant was recovered as the plasma sample. The concentrations of luteinizing hormone (LH) and total testosterone in the plasma were measured with radioimmunoassay (rat LH RIA Immuno-reagent set, National Hormone and Peptide Program, available from Dr. A. F. Parlow, The National Institute of Diabetes and Digestive and Kidney Diseases, and DPC Total Testosterone Kit, Mitsubishi Chemical Formula Iatron, Inc.).

Assay [2] relates to male Crl: CD (SD) rats. Kind of assay: Testosterone release action in male rat (plasma total testosterone by radioimmunoassay). The assay is classed as in vivo. As to the method: as §1
[3] abbreviates: subcutaneous to the dorsum, 1, 10 or 100 nmol/kg, AUC from 0 hour to 4 hours after the administration, vs control group.

On to “metastin (45-54): peptide consisting of the N-terminal 45th-54th amino acid sequence of human metastin (SEQ ID NO: 16); PEPTIDE INSTITUTE, INC. (YNWNSFGLRF)”, for which the “dose showing (significant) increase in the LH concentration in the plasma (AUC)” value in the assay with male Crl: CD (SD) rats [1] (setting [3]) was 100 nmol/kg. For the same substance, in the assay on male Crl: CD (SD) rats [2] (setting [3]), the “dose showing (significant) increase in the total testosterone concentration in the plasma (AUC)” value worked out at 100 nmol/kg.
On to “PEG5K(CS)-CO-Acp-Tyr-Asn-Trp-Asn-Ser-Phe-Gly-Leu-Arg-Phe-NH2 ({PEG5K(CS)‑CO-Ahx}-YNWNSFGLRF-NH2) [compound 1]”, for which the “degree of increase in LH concentration in the plasma in comparison to metastin (45-54)” value in the assay with male Crl: CD (SD) rats [1] (subcutaneous) was “greater degree of increase”. The “degree of increase in total testosterone concentration in the plasma in comparison to metastin (45-54)” value with male Crl: CD (SD) rats [2] (subcutaneous) is reported as “greater degree of increase”.
